Assay results from patent publication US20030228357A1, “Dry granulated formulations of azithromycin” (Pfizer Inc., priority 2002, published 2003).

Key:
Format in all cases: physicochemical
[1] = Density and Carr's Compressibility Index (flowability) of dry blends and dry granulations
Source text: Carr's Compressibility Index was used to evaluate the flowability of the four dry granulations. Carr's Compressibility Index is a simple test to evaluate flowability by comparing both the initial and final (tapped) bulk volumes and the rate of packing down. A useful empirical guide to flow is given by Carr's compressibility index: Compressibility Index(%)=[(tapped density−initial density)/tapped density]×100 […] The procedure is described in Int. J. Pharm. Tech. & Prod. Mfr., 6(3) 10-16, 1985.

[2] = Tablet friability, Vanderkamp Friabulator (100 rotations/4 minutes)
Protocol: Friability is a standard test known to one skilled in the art. Friability is measured under standardized conditions by weighing out a certain number of tablets (generally 20 tablets or less), placing them in a rotating Plexiglas drum in which they are lifted during replicate revolutions by a radial lever, and then dropped approximately 8 inches. After replicate revolutions (typically 100 revolutions at 25 rpm), the tablets are reweighed and the percentage of formulation abraded or chipped is calculated. The friability of the tablets, of the present invention, is preferably in the range of about 0% to 3%, and values about 1%, or less, are considered acceptable for most drug and food tablet contexts. Friability which approaches 0% is particularly preferred.
(§1) All four formulations were compressed on the compaction simulator using either 0.344″×0.688″ oval tooling, or ½″ standard round concave (SRC) tooling. The tablets were tested for hardness (kP scale), using a Schleuniger hardness tablet tester (Dr. Schleuniger Pharmatron AG, Solothurn, Switzerland), and for friability (100 rotations/4 minutes) using a Vanderkamp Friabulator Tablet Tester (Vankel, Cary, N.C., US).

[3] = Tablet disintegration time, Automatic Disintegration Tester; conditions: Table 2A; Long blend; Oval tooling; distilled water at 37° C.
Protocol: The disintegration time was determined in distilled water at 37° C. using an Automatic Disintegration Tester (Model ZT72, Erweka USA Inc, Milford, Conn.) for the long blend tablets. Even with extensive blending times with magnesium stearate, reasonably short disintegration times of 15 and 20 seconds were obtained.

[4] = Slug (compact) hardness, Schleuniger hardness tablet tester
Source text: A compaction simulator was used to compress the blends. The compaction simulator was designed as a single station tablet press in which the compression dwell time can be adjusted to simulate different types of tablet presses. All the formulations were slugged on the compaction simulator configured as the Kilian RX-67 press with a dwell time of 0.3145 seconds using […] round flat face tooling. The slugs were then comminuted using a Fitz mill with a 0.125″ screen with knives forward and run at slow speed. […] The slugs were tested for hardness (kP scale), using a Schleuniger hardness tablet tester (Dr. Schleuniger Pharmatron AG, Solothurn, Switzerland).

[5] = Tablet hardness, Schleuniger hardness tablet tester; conditions: for Avg Tablet Hardness: Table 4D, high drug loading, modified capsule shape; for Avg Tab Hardness: Short blend, Oval tooling
[6] = as above; conditions: DCP anhydrous; for Avg Hardness: Table 3C, low drug loading (35.2 wt % azithromycin), oval tablets, target weight 750 mg
Protocol: as §1

[7] = Indices of tableting performance (Hiestand) of bulk azithromycin; conditions: forms N, M, G, A milled, F and J unmilled
Protocol: Indices of tableting performance, for several azithromycin forms, were assessed to identify any mechanical deficiencies or attributes that may affect tablet formulation for these azithromycin forms. This assessment was performed in accordance with the procedures described in “Indices of Tableting, Performance” […] and D. P. Smith, Powder Technology 38 [1984] pp. 145-159. Specifically, the Brittle Fracture Index, BFI, was calculated from the ratio of a material's regular tensile strength to its compromised tensile strength. Strain Index, SI, was determined from the dynamic indentation hardness test. Worst Case Bonding Index was determined by assessing the extent of particle bonding remaining after decompression assuming a very short compression dwell time and a plastic mechanism of particle separation during decompression. Tableting Indices were determined for bulk azithromycin lots of six different crystalline forms, specifically forms N, M, G, A, F and J. Forms N, M and G were milled with a Fitzmill (Model JT, The Fitzpatrick Co., Elmhurst, Ill.) using a 0.027'' screen and knives at high speed in an attempt to match the smaller particle size of milled Form A. Unmilled forms F and J were evaluated “as is” due to their relatively small particle sizes.

[8] = Tablet friability, Vanderkamp Friabulator (100 rotations/4 minutes); remark: listed apart in the source
[9] = 35.2 wt % azithromycin, dicalcium phosphate anhydrous diluent, Long blend method
[10] = 35.2 wt % azithromycin, dicalcium phosphate anhydrous diluent, Long blend method, slugged
[11] = Table 3A, low drug loading: 35.2 wt % azithromycin, 54.8 wt % dicalcium phosphate anhydrous, long blend
[12] = Table 4B, high drug loading (58.2 wt % azithromycin), diluent DCP, dihyd.
[13] = 35.2 wt % azithromycin, dicalcium phosphate anhydrous diluent, Short blend method
[14] = 35.2 wt % azithromycin, dicalcium phosphate anhydrous diluent, Short blend method, slugged
[15] = Table 4A, low drug loading (35.2 wt % azithromycin), diluent Lactose
[16] = Table 4B, high drug loading (58.2 wt % azithromycin), diluent Lactose
[17] = Table 5A, 58.2 wt % azithromycin, dicalcium phosphate dihydrate, disintegrant Explotab
[18] = Table 5A, 58.2 wt % azithromycin, dicalcium phosphate dihydrate, disintegrant PVP-XL
[19] = Table 7A, 55.76 wt % azithromycin, lactose anhydrous, corn starch, roller compaction 850 psi
[20] = Table 5B, Explotab, 500 mgA, Oval, Precompression 3.5 kN
[21] = Table 5B, Explotab, 500 mgA, Oval, Precompression No
[22] = Table 5B, PVP-XL, 250 mgA, Modified Capsule, Precompression No
[23] = Table 5B, PVP-XL, 600 mgA, Modified Oval, Precompression No
[24] = Table 3D, high drug loading (58.2 wt % azithromycin), DCP anhydrous, modified capsule shape tablets, target weight 450 mg
[25] = Table 5B, Explotab, 250 mgA, Modified Capsule, Precompression No
[26] = Table 5B, PVP-XL, 600 mgA, Modified Oval, Precompression 1.5 kN

With `CCC1OC(=O)C(C)C(O[C@H]2C[C@@](C)(OC)[C@@H](O)C(C)O2)C(C)[C@@H](OC2OC(C)CC(N(C)C)[C@H]2O)[C@@](C)(O)C[C@@H](C)CN(C)[C@H](C)[C@@H](O)[C@]1(C)O` (stereo partly drawn) [Form F, azithromycin monohydrate hemi-ethanol solvate] the “Dry Blend Carr's Index” value [1, 9] was 43%, the “Dry Blend density As Is” value [1, 9] was 0.50 g/cc and the “Dry Blend density Tapped” value [1, 9] was 0.88 g/cc. The “Granulation Carr's Index” value [1, 10] was 22%, the “Granulation Density As Is” value [1, 10] was 0.84 g/cc and the “Granulation Density Tapped” value [1, 10] was 1.07 g/cc. For the same compound, the “Granulation Carr's Index” value [1, 11] was 22%, the “Granulation Density As Is” value [1, 11] was 0.84 g/cc and the “Granulation Density Tapped” value [1, 11] was 1.08 g/cc. For the same compound, the “Dry Granulation Carr's Index” value [1, 12] was 27%, the “Dry Granulation Density As Is” value [1, 12] was 0.63 g/cc and the “Dry Granulation Density Tapped” value [1, 12] was 0.86 g/cc. For the same compound, the Friability ([2]; Table 2A, 35.2 wt % azithromycin, DCP anhydrous, Long blend, Oval tooling) was 0.48%, the Friability ([2]; Table 3C, low drug loading (35.2 wt % azithromycin), DCP anhydrous, oval tablets, target weight 750 mg) was 0.48% and the “Mean disintegration Time” value [3] was 20 s. The “Avg Slug Hardness” value [4, 9] was 22.4 kP, the “Avg Slug Hardness” value [4, 11] was 22 kP and the “Avg Slug Hardness” value [4, 12] was 9 kP. The “Avg Tablet Hardness” value ([5]; diluent DCP, dihyd.) was 7.0 kP, the “Avg Tablet Hardness” value ([6]; Table 2A, 35.2 wt % azithromycin, Long blend, Oval tooling, compression force 13.5 kN (A), 19 kN (F)) was 10.3 kP and the “Avg Hardness” value [6] was 10.3 kP. The “Brittle Fracture Index (BFI)” value [7] was 0.37, the “Strain Index (SI)” value [7] was 0.0041 and the “Tensile Strength” value [7] was 1.62 Mpa. For the same compound, the “Worst Case Bonding Index (BIw) × 10^2” value [7] was 0.9 and the Friability ([8]; Table 4D, high drug loading, diluent DCP, dihyd., modified capsule shape) was 0.31%.

In the case of `CCC1OC(=O)C(C)C(O[C@H]2C[C@@](C)(OC)[C@@H](O)C(C)O2)C(C)[C@@H](OC2OC(C)CC(N(C)C)[C@H]2O)[C@@](C)(O)C[C@@H](C)CN(C)[C@H](C)[C@@H](O)[C@]1(C)O` (stereo partly drawn) [Form M, azithromycin monohydrate hemi-isopropanol solvate], the “Dry Blend Carr's Index” value [1, 13] is reported as 36%, the “Dry Blend density As Is” value [1, 13] is reported as 0.68 g/cc and the “Dry Blend density Tapped” value [1, 13] is reported as 1.08 g/cc. The “Granulation Carr's Index” value [1, 14] was 28%, the “Granulation Density As Is” value [1, 14] was 0.82 g/cc and the “Granulation Density Tapped” value [1, 14] was 1.14 g/cc. For the same compound, the “Granulation Carr's Index” value [1, 11] was 28%, the “Granulation Density As Is” value [1, 11] was 0.82 g/cc and the “Granulation Density Tapped” value [1, 11] was 1.14 g/cc. The “Dry Granulation Carr's Index” value [1, 15] was 30%, the “Dry Granulation Density As Is” value [1, 15] was 0.55 g/cc and the “Dry Granulation Density Tapped” value [1, 15] was 0.78 g/cc. The “Dry Granulation Carr's Index” value [1, 16] was 29%, the “Dry Granulation Density As Is” value [1, 16] was 0.53 g/cc and the “Dry Granulation Density Tapped” value [1, 16] was 0.75 g/cc. For the same compound, the “Dry Granulation Carr's Index” value [1, 17] was 26%, the “Dry Granulation Density As Is” value [1, 17] was 0.67 g/cc and the “Dry Granulation Density Tapped” value [1, 17] was 0.91 g/cc. For the same compound, the “Dry Granulation Carr's Index” value [1, 18] was 25%, the “Dry Granulation Density As Is” value [1, 18] was 0.63 g/cc and the “Dry Granulation Density Tapped” value [1, 18] was 0.84 g/cc. For the same compound, the “Dry Granulation Carr's Index” value [1, 19] was 24%, the “Dry Granulation Density As Is” value [1, 19] was 0.62 g/cc and the “Dry Granulation Density Tapped” value [1, 19] was 0.82 g/cc. The Friability ([2]; Table 2B Run 6, Short blend, Oval tooling, compression force 19.4 kN) was “capped”, the Friability ([2]; Table 2B Run 7, Short blend, Oval tooling, compression force 14 kN) was “capped” and the Friability ([2]; Table 4D, high drug loading, diluent Lactose, modified capsule shape) was 0.28%. The Friability [2, 20] was 0.50%, the Friability [2, 21] was 2.71% and the Friability [2, 22] was 0.25%. The Friability [2, 23] was 6.34%, the “Avg Slug Hardness” value [4, 13] was 10.9 kP and the “Avg Slug Hardness” value [4, 11] was 11 kP. The “Avg Slug Hardness” value [4, 15] was 13 kP, the “Avg Slug Hardness” value [4, 16] was 11 kP and the “Avg Slug Hardness” value [4, 17] was 12 kP. For the same compound, the “Avg Slug Hardness” value [4, 18] was 13 kP, the “Avg Tab Hardness” value ([5]; Table 2B Run 6, compression force 19.4 kN) was 8.4 kP and the “Avg Tab Hardness” value ([5]; Table 2B Run 7, compression force 14 kN) was 5.1 kP. For the same compound, the “Avg Hardness” value [5, 24] was 6.1 kP, the “Avg Tablet Hardness” value ([5]; diluent Lactose) was 5.8 kP and the “Avg Hardness” value [5, 25] was 4.5 kP. The “Avg Hardness” value [5, 20] was 7.4 kP, the “Avg Hardness” value [5, 21] was 5.6 kP and the “Avg Hardness” value [5, 22] was 4.9 kP. The “Avg Hardness” value [5, 26] was 9.2 kP, the “Avg Hardness” value [5, 23] was 4.2 kP and the “Avg Hardness” value [6] was 8.4 kP. For the same compound, the “Brittle Fracture Index (BFI)” value [7] was 0.10, the “Strain Index (SI)” value [7] was 0.0048 and the “Tensile Strength” value [7] was 0.79 Mpa. For the same compound, the “Worst Case Bonding Index (BIw) × 10^2” value [7] was 1.0, the Friability [8, 24] was 0.45% and the Friability [8, 25] was 0.33%. For the same compound, the Friability [8, 26] was 0.34%.
